{
  "source": "patent US11357817B2",
  "about": "“Immunoproteasome inhibitor” (The Regents of the University of California, priority 2017, dated 2022)",
  "key": {"P. falciparum Dd2": {"tested_on": "P. falciparum Dd2", "test": "P. falciparum Dd2 asexual blood stage SYBR Green I compound sensitivity assay", "type": "cell-based, Plasmodium falciparum", "details": "Plasmodium falciparum, DD2, 72 h, asexual blood stage, 72 hour SYBR green assay", "experimental": "P. falciparum Dd2 strain parasites were cultured under standard conditions (31), using RPMI media supplemented with 0.05 mg/ml gentamycin, 0.014 mg/mL hypoxanthine (prepared fresh), 38.4 mM HEPES, 0.2% Sodium Bicarbonate, 3.4 mM Sodium Hydroxide, 0.05% O+ Human Serum (Denatured at […] for 40 min and From Interstate Blood Bank, Memphis, Tenn.) and 0.0025% Albumax). Human O+ whole blood was obtained from TSRI blood bank (La Jolla, Calif.). Leukocyte-free erythrocytes are stored at 50% hematocrit in RPMI-1640 screening media (as above, but without O+ human serum and with 2× albumax concentration) at 4° C. for one to three weeks before experimental use. Cultures were monitored every one to two days via Giemsa-stained thin smears.\nCompound susceptibility was measured using the malaria SYBR Green I-based fluorescence assay (32). Asynchronous P. falciparum parasites (Dd2 strain) were cultured in standard conditions before being plated for the assays. Each compound was tested over 72 hours in technical duplicates on a twelve-point concentration curve prepared by three-fold dilution from 6.7 μM to 0.11 nM. At least three independent experiments were carried out for IC50 determination. Artemisinin and chloroquine were used as controls. IC50 values were obtained using normalized fluorescence intensity from SYBR green I and analyzed via non-linear variable slope four-parameter regression curve-fitting model in Prism 6 (GraphPad Software Inc)."}, "[1]": {"tested_on": "20S Plasmodium proteasome (Pf20S) β5 subunit", "test": "Proteasome activity assay, Pf20S β5 (suc-LLVY-AMC)", "type": "biochemical, Plasmodium falciparum", "experimental": "Asynchronous P. falciparum cultures were grown up to 4-5% parasitemia, in 300 mL of RPMI media at 5.0% hematocrit. Cultures were then transferred to 50 mL conical tubes, pelleted via centrifugation at 800 g for 5 min, and washed once with 1×PBS and pelleted again as above. The PBS was removed and lysis buffer (0.15% saponin in PBS) was added on ice in 10 pellet volumes. Upon lysis of red blood cells, indicated by a clear red supernatant, the lysed cultures were centrifuged at 3200×g for 12 minutes at 4° C. The supernatant was removed by aspiration and the cells were washed twice using chilled PBS in microcentrifuge tubes. The cell pellets were then incubated on ice for 1 hour with occasional vortexing in a buffer consisting of 20 mM Tris-HCl pH 7.5, 5 mM MgCl2, 1 mM DTT, 100 μM E-64 and 1 mM AEBSF. This sample was then subjected to 3 rounds of freezing (−80° C.) and thawing (37° C.) and centrifugation at 6000×g for 10 min. The supernatant containing soluble P. falciparum protein was quantified by the BCA method (Pierce).\nP. falciparum proteasome was enriched by two-chromatographic steps reported previously (10). In brief, 10 mg of P. falciparum protein was concentrated to 1 mL using a 100 kDa centrifugal filter unit (Amicon) and loaded onto a 5 mL anion exchange HiTrap DEAE FF column (GE Healthcare). […] The AMC fluorophore release was monitored at Ex 340/Em 465 nm at 24° C. using a Synergy HTX multi-mode reader (Biotek). […] Proteins were eluted using 20 mM Tris-HCl pH 7.5, 100 mM NaCl, 10% glycerol and 1 mL fractions were collected, evaluated for protease activity and pooled.\nTo estimate the concentration of Pf20S in the final pooled sample, protein was denatured and loaded into a 4-12% Bis-Tris Plus gel (Thermo Fisher Scientific) beside 60 to 100 ng of human constitutive proteasome (Boston Biochem). […] For inhibition assays, inhibitor and substrate were added simultaneously to the enzyme and the rate of AMC release was determined from 60 to 120 minutes and compared to a DMSO control."}},
  "data": [
    {"smiles": "CCCCCC(=O)N[C@@H](C(=O)N[C@@H](CCCC)C(=O)N[C@@H](CC(C)C)C(=O)[C@@]1(C)CO1)C(C)C", "note": "[Analog 18, (S)-2-((R)-2-hexanamido-3-methylbutanamido)-N—((S)-4-methyl-1-((R)-2-methyloxiran-2-yl)-1-oxopentan-2-yl)hexanamide]", "values": [
      {"measurement": "IC50", "setting": "P. falciparum Dd2", "result": "3.27 ± 0.232", "unit": "nM"},
      {"measurement": "decrease in β5 activity", "setting": "[1]; 450 nM compound, proteasome not named", "result": 45, "unit": "%"},
      {"measurement": "potency towards Pf20S compared with c20S", "setting": "[1]; β5 activity, 50 nM compound", "result": "more potent towards Pf20S than c20S"}
    ]}
  ]
}
